Experimental data published in patent US20100075972A1, “AGENT FOR TREATMENT OF MULTIPLE SCLEROSIS” (Kowa Co., Ltd., priority 2007, published 2010).

Experiments:
[1] = tested on: experimental autoimmune encephalomyelitis model; assay: experimental autoimmune encephalomyelitis mouse model, symptom scores; assay type: in vivo, C57BL/6 mice
Description: The experimental autoimmune encephalomyelitis model is established by immunizing a mouse with myelin protein (i.e., myelin-sheath-constituting protein), thereby causing T-cell-mediated autoimmune inflammation in the central nervous system.
Seven-week-old female C57BL/6 mice (Charles River Laboratories Japan, Inc.) were employed. A sensitizing emulsion for causing the mice to develop experimental autoimmune encephalomyelitis was prepared by mixing myelin oligodendrocyte glycoprotein (MOG) 35-55 (Alexis Biochemical) with an equiamount of complete Freund's adjuvant H37Ra (DIFCO) so that the MOG concentration was 2 mg/mL, followed by homogenization under ice cooling by means of Handy Micro Homogenizer (product of Microtec Co., Ltd.). The thus-prepared emulsion (0.1 mL) was intradermally administered to each mouse at its tail base for initial sensitization. On the same day, pertussis toxin dissolved in saline (500 ng/0.3 mL) was intravenously injected to the tail. Two days after initial sensitization, in a manner similar to that described above, pertussis toxin (500 ng/0.3 mL) was intravenously injected for booster. Drug A was orally administered (30 mg/kg) twice a day in the morning (9:00 to 11:00) and in the evening (15:30 to 17:30) from the day following the initial sensitization to 42 days after sensitization.
The drugs were evaluated from the condition of experimentally created autoimmune encephalomyelitis according to the following ratings:
score 1: limp tail or abnormal gait;
score 2: limp tail and abnormal gait;
score 3: paralysis of one limb;
score 4: paralysis of two or more limbs; and
In FIGS. 1 and 2 and Table 1, the data for each group (10 mice) are represented by average value±standard error (non-parametric Dunnett's test).

F4/80 mRNA = F4/80 mRNA expression in the spinal cord of experimental autoimmune encephalomyelitis mice (real-time PCR); assay type: in vivo; details: day 42, spinal cord of EAE mice of Example 1, corrected by ribosomal RNA
Description: (§1) On day 42, the spinal cord was removed from the mice employed in Example 1, and total RNA was recovered by use of ISOGEN (Nippon Gene Co., Ltd.). For comparison, similarly, the spinal cord was extirpated from unsensitized normal mice, and was employed for the below-described quantitative determination. cDNA was synthesized from the thus-obtained total RNA by use of a reverse transcriptase, and the amount of mRNA of the following gene (F4/80, TNF-α, IL-1β, or IL-6) was quantitatively determined by means of an ABI PRISM 7900HT system (Applied Biosystems) through real-time PCR employing a TaqMan probe according to the protocol of Applied Biosystems. Meanwhile, the amount of ribosomal RNA was determined, and employed for correction.

IL-6 mRNA = IL-6 mRNA expression in the spinal cord of experimental autoimmune encephalomyelitis mice (real-time PCR); assay type: in vivo; details: day 42, spinal cord of EAE mice of Example 1, corrected by ribosomal RNA
Description: as §1

[2] = tested on: interleukin-1β production; details: as disclosed in WO 99/25697; cited from earlier work
TNF-α mRNA = TNF-α mRNA expression in the spinal cord of experimental autoimmune encephalomyelitis mice (real-time PCR); assay type: in vivo; details: day 42, spinal cord of EAE mice of Example 1, corrected by ribosomal RNA
Description: as §1

IL-1β mRNA = IL-1β mRNA expression in the spinal cord of experimental autoimmune encephalomyelitis mice (real-time PCR); assay type: in vivo; details: day 42, spinal cord of EAE mice of Example 1, corrected by ribosomal RNA
Description: as §1

[3] = oral administration of drug A 30 mg/kg twice a day

For `CSc1ccc(-c2nn(Cc3ccccc3)c(=O)cc2-c2ccc(Cl)cc2)cc1` [Drug A, 2-Benzyl-5-(4-chlorophenyl)-6-[4-(methylthio)phenyl]-2H-pyridazin-3-one], the “Incidence rate, symptoms corresponding to score 2 or worse” value ([1]; EAE mice, 10 per group, Drug A 30 mg/kg orally twice a day to day 42, IFN-β 10,000 IU/individual subcutaneously every other day) was 8/10, the “death case during the experiment (score 5)” value ([1]; EAE mice, 42 days after sensitization, Drug A 30 mg/kg orally twice a day, IFN-β 10,000 IU/individual s.c. every other day) was “no death case was observed” and the “Days required for onset, symptoms corresponding to score 2 or worse” value ([1]; EAE mice, average ± standard error, Drug A 30 mg/kg orally twice a day, IFN-β 10,000 IU/individual subcutaneously every other day) was 22.4 ± 1.5 days. For the same compound, the “experimental autoimmune encephalomyelitis scores (FIG. 1)” value [1, 3] was “ameliorated to almost the same extent as in the case of IFN-β”, the “maximum score of experimental autoimmune encephalomyelitis symptoms (FIG. 2)” value [1, 3] was “tended to be reduced” and the “onset of symptoms corresponding to score 2 or worse (in words)” value [1, 3] was “tended to be delayed”. The “amount of expression of mRNA of F4/80 in spinal cord” value (F4/80 mRNA) was “found to be reduced”, the “expression of IL-6 mRNA in spinal cord” value (IL-6 mRNA) was “found to be reduced” and the “interleukin-1β production inhibitory effect” value [2] was “excellent”. The “expression of TNF-α mRNA in spinal cord” value (TNF-α mRNA) was “found to be reduced” and the “expression of IL-1β mRNA in spinal cord” value (IL-1β mRNA) was “found to be reduced”.
